Counter-ions that a name gives are not always drawn.
Assays:
Male SD rats [1] = assay: Blood pressure change after tail vein injection (mean arterial pressure); settings: dosage 2× ED50, injection within 15 seconds, 60 min recording, rats under isoflurane
Description: Male SD rats weighing 250-300 g were randomly divided into groups, with 10 rats in each group. General anesthesia was maintained by inhaling isoflurane. By intubating via femoral artery, blood pressure was monitored using the BL-420N biological signal collection and analysis system. minutes after blood pressure stabilization, the baseline mean arterial pressure (MAP0) was measured. Subsequently, the physiological saline solution of each test drug was injected via the tail vein (the dosage of each drug was the same as that in Experiment example 2, with a unified injection […] volume of 1 mL). […] All prodrug molecules were injected within 15 seconds. After injection of each drug, the change in blood pressure was continuously recorded for 60 min. […] The difference MAPΔ+ between the baseline mean arterial pressure (MAP0) and the highest mean arterial pressure (MAPmax) during the 60 min measurement time was calculated; the difference MAPΔ− between the baseline mean arterial pressure (MAP0) and the lowest mean arterial pressure (MAPmin) during the 60 min measurement time was also obtained; both of the difference values were used to calculate the maximum increase rate of mean arterial pressure +Δ%=MAPΔ+/MAP0*100% and the maximum decrease rate of mean arterial pressure −Δ%=MAPΔ−/MAP0*100%, respectively. The maximum increase rate of mean arterial pressure +Δ% and the maximum decrease rate −Δ% reflect the degree of blood pressure change that the body experienced after administration. The larger the value, the greater the blood pressure change that the body experienced.

[2] = Degradation of prodrug in rat plasma (release of dexmedetomidine, HPLC); type: in vitro ADME; settings: 37° C.
Description: The test prodrug was formulated as a 1 mg/mL of physiological saline solution, and then 100 μL of the prodrug solution was added to 900 μL of rat plasma. The test solution was vortexed for 30 s before incubation at 37° C. 50 μL of drug-containing plasma was collected at 0.5 min, 1 min, 2 min, 3 min, 5 min, 10 min, 15 min, 20 min, 30 min, and 60 min, respectively, to which was immediately added 150 μL of acetonitrile to terminate the enzymatic reaction, followed by adding the solution of internal standard telmisartan in methanol (30 μL, 20 μg/mL). Then, the resultant solution was centrifuged at 20000 rpm and 4° C. for 10 min. 100 μL of the supernatant was injected for detection by HPLC, and the concentration of dexmedetomidine was determined by an internal standard method. The degradation rate of the prodrug was calculated based on the concentration of dexmedetomidine. The chromatographic conditions are: Swell XDB C18 column (150 mm×4.6 mm, 5 μm); column temperature 30° C.; using gradient elution (see Table 1), mobile phase A: methanol, mobile phase B: 0.1% trifluoroacetic acid in water, and mobile phase C: acetonitrile; detection wavelength: 220 nm; flow rate: 1.0 mL/min; injection volume: 30 μL; retention time: 4.7 minutes for dexmedetomidine and 6.7 minutes for internal standard telmisartan. The linear range of dexmedetomidine: 2.5-100 μg/mL. Instruments: Waters 2695 high-performance liquid chromatograph, Waters 2996 photodiode array detector.

Male SD rats [3] = assay: Hypnotic effect after tail vein injection (loss of righting reflex); type: in vivo, rat; settings: for ED50: Rattus norvegicus, 50% of the dose for the disappearance of righting reflex in rats, tail vein injection; for Onset time: tail vein injection of 2× ED50, loss of righting reflex; for Onset time / Duration: rats; for Duration: tail vein injection of 2× ED50, until recovery of righting reflex
Description: Male SD rats, weighing 250-300 g, were randomly divided into groups, with 10 rats in each group. […] The onset times and the duration of hypnosis were recorded.

Row | SMILES | +Δ % (The maximum increase rate of blood pressure) (Male SD rats [1]) | −Δ % (The maximum decrease rate of blood pressure) (Male SD rats [1]) [%] | Degradation rate of prodrug % ([2]; 0.5 min) [%] | Degradation rate of prodrug % ([2]; 1 min) [%] | Degradation rate of prodrug % ([2]; 2 min) [%] | Degradation rate of prodrug % ([2]; 3 min) [%] | Degradation rate of prodrug % ([2]; 5 min) [%] | Degradation rate of prodrug % ([2]; 10 min) [%] | Degradation rate of prodrug % ([2]; 15 min) [%] | Degradation rate of prodrug % ([2]; 20 min) [%] | ED50 (Male SD rats [3]) [mg/kg] | Onset time (Male SD rats [3]) [min] | Duration (Male SD rats [3]) [min] | Degradation rate of prodrug % ([2]; 30 min) [%] | Degradation rate of prodrug % ([2]; 60 min) [%]
1 | CCCOC(=O)n1cnc([C@@H](C)c2cccc(C)c2C)c1 [Compound 11-HCl] | *25 ± 7% | 41 ± 8 | 26 | 57 | 74 | 75 | 82 | 88 | 95 | 100 | 0.026 | 2.6 ± 0.3 | 47 ± 8 | – | –
2 | Cc1cccc([C@H](C)c2cn(COC(=O)C(C)(C)C)cn2)c1C [Compound 3-HCl] | *13 ± 6% | 41 ± 8 | 36 | 73 | 87 | 96 | 100 | – | – | – | 0.059 | 2.6 ± 1.1 | 50 ± 10 | – | –
3 | CCOC(=O)COC(=O)OCn1cnc([C@@H](C)c2cccc(C)c2C)c1 [Compound 24-HCl] | *27 ± 12% | – | 18 | 21 | 24 | 27 | 31 | 33 | 36 | 37 | 0.03 | 1.3 ± 0.4 | 47 ± 7 | 38 | 41
4 | Cc1cccc([C@H](C)c2cn(COC(=O)OC3CCC3)cn2)c1C [Compound 14-HCl] | 31 ± 6% | 36 ± 6 | 53 | 80 | 85 | 98 | 100 | – | – | – | 0.031 | 3.9 ± 2.1 | 51 ± 7 | – | –
5 | Cc1cccc([C@H](C)c2cn(C(=O)OC(C)C)cn2)c1C [Compound 5-HCl] | *18 ± 6% | 35 ± 5 | 36 | 47 | 52 | 67 | 89 | 98 | 100 | – | 0.037 | 3.7 ± 1.3 | 61 ± 15 | – | –
6 | CCCC(=O)OCn1cnc([C@@H](C)c2cccc(C)c2C)c1 [Compound 8-HCl] | *18 ± 8% | 31 ± 7 | 76 | 89 | 97 | 100 | – | – | – | – | 0.024 | 4.1 ± 2.4 | 31 ± 13 | – | –
7 | COC(=O)OCn1cnc([C@@H](C)c2cccc(C)c2C)c1 [Compound 13-HCl] | *16 ± 8% | 39 ± 7 | 16 | 44 | 67 | 79 | 90 | 96 | 100 | – | 0.025 | 4.1 ± 1.3 | 36 ± 7 | – | –
8 | CCOC(=O)OCn1cnc([C@@H](C)c2cccc(C)c2C)c1 [Compound 6-HCl] | *23 ± 9% | 36 ± 6 | 21 | 47 | 76 | 89 | 96 | 100 | – | – | 0.03 | 2.1 ± 1.1 | 45 ± 8 | – | –
9 | CC(=O)OC(C)n1cnc([C@@H](C)c2cccc(C)c2C)c1 (some centres unmarked) [Compound 17-HCl] | *15 ± 4% | 35 ± 6 | 12 | 16 | 19 | 22 | 29 | 39 | 48 | 53 | 0.029 | 1.8 ± 0.7 | 42 ± 12 | 58 | 67
10 | Cc1cccc([C@H](C)c2cn(COC(=O)C(C)C)cn2)c1C [Compound 2-HCl] | *19 ± 11% | 32 ± 5 | 35 | 57 | 87 | 94 | 100 | – | – | – | 0.043 | 1.1 ± 0.2 | 63 ± 15 | – | –
11 | COC(=O)COC(=O)OCn1cnc([C@@H](C)c2cccc(C)c2C)c1 [Compound 23-HCl] | 29 ± 7% | 35 ± 8 | 23 | – | – | – | 25 | 27 | 28 | 29 | 0.051 | 1.7 ± 0.4 | 61 ± 15 | 31 | 34
12 | CCC(=O)OC(C)n1cnc([C@@H](C)c2cccc(C)c2C)c1 (some centres unmarked) [Compound 18-HCl] | 29 ± 12% | 34 ± 8 | 17 | 33 | 42 | 48 | 54 | 59 | 64 | 69 | 0.036 | 2.4 ± 0.9 | 41 ± 10 | 72 | 75
13 | Cc1cccc([C@H](C)c2cn(COC(=O)C3CC3)cn2)c1C [Compound 15-HCl] | *21 ± 5% | 36 ± 6 | 18 | 41 | 54 | 63 | 87 | 94 | 100 | – | 0.03 | 3.5 ± 1.2 | 43 ± 9 | – | –
14 | Cc1cccc([C@H](C)c2cn(COP(=O)(O)O)cn2)c1C [Compound 26] | *15 ± 8% | 36 ± 8 | 29 | 31 | 32 | 33 | 34 | 35 | 37 | 38 | 0.032 | 1.7 ± 0.3 | 46 ± 5 | 43 | 56

From patent US20240217936A1, “5-BENZY[…] AND PREPARATION METHOD THEREFOR AND USE THEREOF” (WEST CHINA HOSPITAL, SICHUAN UNIVERSITY, priority 2021, published 2024)
